From patent publication US9174995B2, “Pyrrolotriazinone derivatives” (Merck Patent GmbH, priority 2012, dated 2015)

Target: T1, GST-tagged Tankyrase-1 (1023-1327 aa) (Homo sapiens, UniProt O95271)
T1 construct: GST-tagged Tankyrase-1 (1023-1327 aa)
Assay: Tankyrase 1 autoparsylation assay (HTRF enzyme assay)
Type: biochemical
Procedure: Biochemical Activity Testing of Tankyrase 1 and 2: Autoparsylation Assay
The autoparsylation assay is run in two steps: the enzymatic reaction in which GST-tagged Tankyrase-1, resp Tankyrase-2 transferred biotinylated ADP-ribose to itself from biotinylated NAD as co-substrate and the detection reaction where a time resolved FRET between cryptate labelled anti-GST bound to the GST tag of the enzyme and Xlent® labelled-streptavidin bound the biotin-parsylation residue is analysed. The autoparsylation activity was detectable directly via the increase in HTRF signal.
The autoparsylation assay is performed as 384-well HTRF® (Cisbio, Codolet, France) assay format in Greiner low volume nb 384-well microtiter plates and is used for high throughput screen. 250 nM GST-tagged Tankyrase-1 (1023-1327 aa), respectively about 250 nM GST-tagged Tankyrase-2 (873-1166 aa) and 5 μM bio-NAD (Biolog, Life science Inst., Bremen, Germany) as co-substrate are incubated in a total volume of 5 μl (50 mM HEPES, 4 mM Mg-chloride, 0.05% Pluronic F-68, 1.4 mM DTT, 0.5% DMSO, pH 7.7) in the absence or presence of the test compound (10 dilution concentrations) for 90 min at 30° C. The reaction is stopped by the addition of 1 μl 50 mM EDTA solution. 2 μl of the detection solution (1.6 μM SA-Xlent® (Cisbio, Codolet, France), 7.4 nM Anti-GST-K® (Eu-labelled anti-GST, Cisbio, Codolet, France) in 50 mM HEPES, 800 mM KF, 0.1% BSA, 20 mM EDTA, 0.1% CHAPS, pH 7.0) are added. After 1 h incubation at room temperature the HTRF is measured with an Envision multimode reader (Perkin Elmer LAS Germany GmbH) at excitation wavelength 340 nm (laser mode) and emission wavelengths 615 nm and 665 nm. The ratio of the emission signals is determined. The full value used is the inhibitor-free reaction. The pharmacological zero value used is XAV-939 (Tocris) in a final concentration of 5 μM. The inhibitory values (IC50) are determined using either the program Symyx Assay Explorer® or Condosseo® from GeneData.

T1 sequence (O95271 1023-1327): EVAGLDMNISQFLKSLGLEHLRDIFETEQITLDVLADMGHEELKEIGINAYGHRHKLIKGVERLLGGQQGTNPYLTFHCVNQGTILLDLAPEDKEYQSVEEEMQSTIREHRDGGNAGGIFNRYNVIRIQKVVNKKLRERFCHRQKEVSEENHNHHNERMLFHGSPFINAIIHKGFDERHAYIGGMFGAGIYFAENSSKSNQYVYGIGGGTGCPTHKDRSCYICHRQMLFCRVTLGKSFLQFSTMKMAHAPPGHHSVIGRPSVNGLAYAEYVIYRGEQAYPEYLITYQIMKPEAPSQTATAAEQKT

Compound	IC50 [nM]
CC(C)(O)c1ccc(-c2nn3cccc3c(=O)[nH]2)cc1 [Compound A5, 2-[4-(1-hydroxy-1-methyl-ethyl)-phenyl]-3H-pyrrolo[2,1-f][1,2,4]triazin-4-one]	< 300
Cn1cc(-c2ccc(-c3nn4cccc4c(=O)[nH]3)cc2)cn1 [Compound A7, 2-[4-(1-methyl-1H-pyrazol-4-yl)-phenyl]-3H-pyrrolo[2,1-f][1,2,4]triazin-4-one]	< 300
Cc1cc2c(=O)[nH]c(-c3ccc(C(C)(C)O)cc3)nn2c1 [Compound A11, 2-[4-(1-hydroxy-1-methyl-ethyl)phenyl]-6-methyl-3H-pyrrolo[2,1-f][1,2,4]triazin-4-one]	< 300
CC(C)(O)c1ccc(-c2nn3cc(F)cc3c(=O)[nH]2)cc1 [Compound A12, 6-fluoro-2-[4-(1-hydroxy-1-methyl-ethyl)phenyl]-3H-pyrrolo[2,1-f][1,2,4]triazin-4-one]	< 300
Cc1cc2c(=O)[nH]c(-c3ccc(-c4cnn(C)c4)cc3)nn2c1 [Compound A13, 6-methyl-2-[4-(1-methylpyrazol-4-yl)phenyl]-3H-pyrrolo-[2,1-f][1,2,4]triazin-4-one]	< 300
CCC(O)(CC)c1ccc(-c2nn3cccc3c(=O)[nH]2)cc1 [Compound A14, 2-[4-(1-ethyl-1-hydroxy-propyl)-phenyl]-3H-pyrrolo[2,1-f][1,2,4]triazin-4-one]	< 300
CC(C)(OCCO)c1ccc(-c2nn3cccc3c(=O)[nH]2)cc1 [Compound A15, 2-{4-[1-(2-hydroxy-ethoxy)-1-methyl-ethyl]-phenyl}-3H-pyrrolo[2,1-f][1,2,4]triazin-4-one]	< 300
CC(C)(O)c1ccc(-c2nn3cc(Cl)cc3c(=O)[nH]2)cc1 [Compound A18, 6-chloro-2-[4-(1-hydroxy-1-methyl-ethyl)-phenyl]-3H-pyrrolo[2,1-f][1,2,4]triazin-4-one]	< 300
O=c1[nH]c(-c2ccc(C3(O)CCCC3)cc2)nn2cccc12 [Compound A21, 2-[4-(1-hydroxy-cyclopentyl)-phenyl]-3H-pyrrolo[2,1-f][1,2,4]-triazin-4-one]	< 300
